From patent publication US9340590B2 (priority 2011, dated 2016)
pIC50: −log10 of the molar value. Positions of bridges follow the written chain, without caps; N, C: chain ends. Residues, ends and D or L forms follow the SMILES beside them.

Key:
Test in all cases: cell-based
hNav1.7 = hNav1.7 (Homo sapiens, UniProt Q15858); format: cell-based; details: IonWorks Quattro; clamped to −110 mV, depolarized to −10 mV, 5 min after compound; n=2; read-out: IWQ Use Nav1.7
hNav1.5 = hNav1.5 (Homo sapiens, UniProt Q14524); details: IonWorks Quattro; clamped to −110 mV, depolarized to −10 mV, 5 min after compound; n=2; read-out: IWQ Use Nav1.5
hNav1.5, sequence (Q14524 whole entry, looked up): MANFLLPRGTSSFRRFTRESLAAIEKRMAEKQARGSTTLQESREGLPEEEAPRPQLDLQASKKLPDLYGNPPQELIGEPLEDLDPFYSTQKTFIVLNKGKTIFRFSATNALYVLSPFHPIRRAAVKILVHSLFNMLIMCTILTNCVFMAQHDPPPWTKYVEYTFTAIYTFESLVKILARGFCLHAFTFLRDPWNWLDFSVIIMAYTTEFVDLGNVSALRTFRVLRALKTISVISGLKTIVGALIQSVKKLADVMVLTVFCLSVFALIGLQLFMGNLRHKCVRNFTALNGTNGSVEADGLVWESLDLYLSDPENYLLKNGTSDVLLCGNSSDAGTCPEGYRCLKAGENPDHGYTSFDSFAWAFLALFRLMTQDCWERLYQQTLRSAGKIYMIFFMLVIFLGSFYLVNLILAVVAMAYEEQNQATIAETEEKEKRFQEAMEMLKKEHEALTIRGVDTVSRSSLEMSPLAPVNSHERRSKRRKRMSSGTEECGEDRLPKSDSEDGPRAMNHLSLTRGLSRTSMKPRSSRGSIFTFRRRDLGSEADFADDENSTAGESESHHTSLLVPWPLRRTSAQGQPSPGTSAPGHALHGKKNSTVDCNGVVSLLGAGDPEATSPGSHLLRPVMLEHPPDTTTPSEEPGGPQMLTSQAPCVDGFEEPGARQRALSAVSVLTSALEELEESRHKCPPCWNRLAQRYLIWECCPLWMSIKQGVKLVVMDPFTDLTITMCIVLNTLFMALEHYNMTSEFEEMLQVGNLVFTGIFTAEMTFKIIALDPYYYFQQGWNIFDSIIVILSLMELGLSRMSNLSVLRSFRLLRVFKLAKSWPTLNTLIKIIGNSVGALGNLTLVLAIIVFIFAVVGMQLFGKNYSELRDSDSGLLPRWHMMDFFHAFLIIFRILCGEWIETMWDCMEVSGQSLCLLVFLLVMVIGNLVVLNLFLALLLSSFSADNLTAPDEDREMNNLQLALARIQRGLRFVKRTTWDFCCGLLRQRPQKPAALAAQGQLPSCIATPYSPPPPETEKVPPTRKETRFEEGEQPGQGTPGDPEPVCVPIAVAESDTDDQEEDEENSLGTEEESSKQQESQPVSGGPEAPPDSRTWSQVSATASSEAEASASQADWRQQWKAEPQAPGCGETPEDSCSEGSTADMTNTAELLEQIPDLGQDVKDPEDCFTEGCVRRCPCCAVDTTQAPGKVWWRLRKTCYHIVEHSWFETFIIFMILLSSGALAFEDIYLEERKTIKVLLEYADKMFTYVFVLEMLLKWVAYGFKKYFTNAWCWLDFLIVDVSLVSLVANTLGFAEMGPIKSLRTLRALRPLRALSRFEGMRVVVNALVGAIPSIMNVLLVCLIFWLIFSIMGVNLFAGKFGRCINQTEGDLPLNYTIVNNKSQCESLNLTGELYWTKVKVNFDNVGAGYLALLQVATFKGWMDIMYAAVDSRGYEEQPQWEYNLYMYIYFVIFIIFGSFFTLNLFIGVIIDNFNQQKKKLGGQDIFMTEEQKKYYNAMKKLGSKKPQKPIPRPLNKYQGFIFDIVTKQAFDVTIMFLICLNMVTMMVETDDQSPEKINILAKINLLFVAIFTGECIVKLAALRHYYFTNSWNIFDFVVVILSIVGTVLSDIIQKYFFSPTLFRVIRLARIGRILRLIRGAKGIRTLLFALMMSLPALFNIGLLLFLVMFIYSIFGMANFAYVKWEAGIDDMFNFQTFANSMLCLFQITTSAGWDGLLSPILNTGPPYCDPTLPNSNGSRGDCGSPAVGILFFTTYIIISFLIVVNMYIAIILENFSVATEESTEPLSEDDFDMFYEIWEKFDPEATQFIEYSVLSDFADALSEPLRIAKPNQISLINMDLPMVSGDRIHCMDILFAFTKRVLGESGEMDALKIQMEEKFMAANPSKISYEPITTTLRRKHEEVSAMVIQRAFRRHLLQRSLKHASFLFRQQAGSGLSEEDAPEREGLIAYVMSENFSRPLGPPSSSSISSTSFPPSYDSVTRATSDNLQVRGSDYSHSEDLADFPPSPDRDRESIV

hNav1.3 = hNav1.3 (Homo sapiens, UniProt Q9NY46); details: IonWorks Quattro; clamped to −110 mV, depolarized to −10 mV, 5 min after compound; n=2; read-out: IWQ Use Nav1.3
hNav1.3, sequence (Q9NY46 whole entry, looked up): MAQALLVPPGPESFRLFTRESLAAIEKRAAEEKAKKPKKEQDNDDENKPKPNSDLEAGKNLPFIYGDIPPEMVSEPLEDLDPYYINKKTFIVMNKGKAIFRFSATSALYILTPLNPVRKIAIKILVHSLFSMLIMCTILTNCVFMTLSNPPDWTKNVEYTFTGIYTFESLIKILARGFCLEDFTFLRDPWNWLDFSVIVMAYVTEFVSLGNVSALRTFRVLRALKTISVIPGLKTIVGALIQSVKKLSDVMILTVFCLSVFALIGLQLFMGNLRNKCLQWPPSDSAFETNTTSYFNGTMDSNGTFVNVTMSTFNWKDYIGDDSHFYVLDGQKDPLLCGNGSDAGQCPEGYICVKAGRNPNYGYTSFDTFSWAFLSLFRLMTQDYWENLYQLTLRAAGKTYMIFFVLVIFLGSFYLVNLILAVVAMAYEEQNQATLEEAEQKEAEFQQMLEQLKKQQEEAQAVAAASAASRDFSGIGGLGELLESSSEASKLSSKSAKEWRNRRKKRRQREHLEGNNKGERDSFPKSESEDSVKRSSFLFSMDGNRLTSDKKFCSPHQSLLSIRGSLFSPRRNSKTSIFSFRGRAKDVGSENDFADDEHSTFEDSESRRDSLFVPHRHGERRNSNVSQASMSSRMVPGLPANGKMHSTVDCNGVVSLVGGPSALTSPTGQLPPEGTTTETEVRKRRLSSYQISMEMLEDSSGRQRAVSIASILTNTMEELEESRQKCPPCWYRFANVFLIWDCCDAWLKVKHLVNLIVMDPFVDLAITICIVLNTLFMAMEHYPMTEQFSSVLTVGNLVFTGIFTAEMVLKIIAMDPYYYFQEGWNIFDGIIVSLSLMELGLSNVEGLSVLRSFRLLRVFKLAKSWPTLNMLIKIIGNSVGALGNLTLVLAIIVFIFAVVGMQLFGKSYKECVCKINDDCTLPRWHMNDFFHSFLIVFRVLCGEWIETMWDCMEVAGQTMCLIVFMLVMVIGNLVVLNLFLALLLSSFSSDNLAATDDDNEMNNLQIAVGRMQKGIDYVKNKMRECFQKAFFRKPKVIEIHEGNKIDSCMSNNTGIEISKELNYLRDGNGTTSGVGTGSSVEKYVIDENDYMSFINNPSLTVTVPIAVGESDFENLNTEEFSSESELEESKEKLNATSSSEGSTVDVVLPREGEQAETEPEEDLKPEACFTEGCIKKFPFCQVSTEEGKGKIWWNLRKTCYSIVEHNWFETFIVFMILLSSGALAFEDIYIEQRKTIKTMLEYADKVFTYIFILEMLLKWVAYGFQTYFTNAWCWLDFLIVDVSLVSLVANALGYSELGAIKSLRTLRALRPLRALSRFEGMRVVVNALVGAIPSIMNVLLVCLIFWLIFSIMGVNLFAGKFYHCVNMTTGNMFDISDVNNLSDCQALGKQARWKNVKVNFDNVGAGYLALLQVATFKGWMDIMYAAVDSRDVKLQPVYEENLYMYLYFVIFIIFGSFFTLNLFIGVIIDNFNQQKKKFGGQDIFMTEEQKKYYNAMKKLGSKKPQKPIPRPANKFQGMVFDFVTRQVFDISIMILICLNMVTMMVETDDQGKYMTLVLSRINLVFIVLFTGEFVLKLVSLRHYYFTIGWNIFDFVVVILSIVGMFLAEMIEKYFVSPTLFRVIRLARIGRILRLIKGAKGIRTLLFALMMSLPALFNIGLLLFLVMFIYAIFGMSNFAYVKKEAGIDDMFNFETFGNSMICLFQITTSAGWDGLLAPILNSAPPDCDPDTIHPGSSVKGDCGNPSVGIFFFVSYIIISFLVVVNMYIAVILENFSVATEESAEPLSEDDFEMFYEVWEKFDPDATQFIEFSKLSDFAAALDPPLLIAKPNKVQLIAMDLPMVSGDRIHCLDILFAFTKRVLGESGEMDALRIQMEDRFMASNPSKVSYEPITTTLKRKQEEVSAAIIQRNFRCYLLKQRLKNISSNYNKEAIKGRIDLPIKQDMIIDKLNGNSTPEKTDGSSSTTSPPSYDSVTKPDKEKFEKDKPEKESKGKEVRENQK

SMILES | pIC50 (hNav1.7) | pIC50 (hNav1.5) | pIC50 (hNav1.3)
CC[C@H](C)[C@@H]1NC(=O)[C@@H]2CSSC[C@@H]3NC(=O)[C@H](C(C)C)NC(=O)[C@H](CC(C)C)NC(=O)[C@H](CC(N)=O)NC(=O)[C@@H]4CCCN4C(=O)[C@H](CCCNC(=N)N)NC(=O)[C@H](CSSC[C@H](NC(=O)[C@@H](N)CC(=O)O)C(=O)N[C@@H](CC(C)C)C(=O)NCC(=O)N[C@@H](Cc4c[nH]cn4)C(=O)N[C@@H](CCSC)C(=O)N[C@@H](CCCNC(=N)N)C(=O)N[C@@H](CCCCN)C(=O)N2)NC(=O)[C@H](CSSC[C@@H](C(=O)N[C@@H](CCCCN)C(=O)N[C@@H](Cc2ccc(O)cc2)C(=O)N[C@H](C(=O)N[C@@H](Cc2ccccc2)C(N)=O)C(C)C)NC(=O)[C@H](Cc2c[nH]c4ccccc24)NC(=O)[C@H](CCCCN)NC(=O)[C@H](Cc2c[nH]cn2)NC(=O)[C@H]([C@@H](C)O)NC(=O)[C@H](CCCNC(=N)N)NC(=O)[C@H](CO)NC3=O)NC(=O)[C@H](CCCCN)NC(=O)[C@H](CC(=O)O)NC(=O)[C@H](CC(N)=O)NC(=O)[C@H](CC(=O)O)NC(=O)[C@@H]2CCCN2C1=O [SEQ ID NO: 266] (H-DCLGHMRKCIPDNDKCCRPNLVCSRTHKWCKYVF-NH2; disulfide 2-17, 9-23, 16-30) | 5.32 | 5.18 | 5.08
CC[C@H](C)[C@@H]1NC(=O)[C@@H]2CSSC[C@@H]3NC(=O)[C@H](C(C)C)NC(=O)[C@H](CC(C)C)NC(=O)[C@H](CC(N)=O)NC(=O)[C@@H]4CCCN4C(=O)[C@H](CCCNC(=N)N)NC(=O)[C@H](CSSC[C@H](NC(=O)[C@@H](N)CC(=O)O)C(=O)N[C@@H](CC(C)C)C(=O)NCC(=O)N[C@@H](CCSC)C(=O)N[C@@H](CCSC)C(=O)N[C@@H](CCCNC(=N)N)C(=O)N[C@@H](CCCCN)C(=O)N2)NC(=O)[C@H](CSSC[C@@H](C(=O)N[C@@H](CCCCN)C(=O)N[C@@H](Cc2ccc(O)cc2)C(=O)N[C@H](C(=O)N[C@@H](Cc2ccccc2)C(N)=O)C(C)C)NC(=O)[C@H](Cc2c[nH]c4ccccc24)NC(=O)[C@H](CCCCN)NC(=O)[C@H](Cc2cnc[nH]2)NC(=O)[C@H]([C@@H](C)O)NC(=O)[C@H](CCCNC(=N)N)NC(=O)[C@H](CO)NC3=O)NC(=O)[C@H](CCCCN)NC(=O)[C@H](CC(=O)O)NC(=O)[C@H](CC(N)=O)NC(=O)[C@H](CC(=O)O)NC(=O)[C@@H]2CCCN2C1=O [SEQ ID NO: 268] (H-DCLGMMRKCIPDNDKCCRPNLVCSRTHKWCKYVF-NH2; disulfide 2-17, 9-23, 16-30) | 7.00 | 4.89 | 6.62
CC[C@H](C)[C@@H]1NC(=O)[C@@H]2CSSC[C@@H]3NC(=O)[C@H](C(C)C)NC(=O)[C@H](CC(C)C)NC(=O)[C@H](CC(N)=O)NC(=O)[C@@H]4CCCN4C(=O)[C@H](CCCNC(=N)N)NC(=O)[C@H](CSSC[C@H](NC(=O)[C@@H](N)CC(=O)O)C(=O)N[C@@H](CC(C)C)C(=O)NCC(=O)N4CCC[C@H]4C(=O)N[C@@H](CCSC)C(=O)N[C@@H](CCCNC(=N)N)C(=O)N[C@@H](CCCCN)C(=O)N2)NC(=O)[C@H](CSSC[C@@H](C(=O)N[C@@H](CCCCN)C(=O)N[C@@H](Cc2ccc(O)cc2)C(=O)N[C@H](C(=O)N[C@@H](Cc2ccccc2)C(N)=O)C(C)C)NC(=O)[C@H](Cc2c[nH]c4ccccc24)NC(=O)[C@H](CCCCN)NC(=O)[C@H](Cc2c[nH]cn2)NC(=O)[C@H]([C@@H](C)O)NC(=O)[C@H](CCCNC(=N)N)NC(=O)[C@H](CO)NC3=O)NC(=O)[C@H](CCCCN)NC(=O)[C@H](CC(=O)O)NC(=O)[C@H](CC(N)=O)NC(=O)[C@H](CC(=O)O)NC(=O)[C@@H]2CCCN2C1=O [SEQ ID NO: 269] (H-DCLGPMRKCIPDNDKCCRPNLVCSRTHKWCKYVF-NH2; disulfide 2-17, 9-23, 16-30) | 5.93 | 5.18 | 5.76
CC[C@H](C)[C@@H]1NC(=O)[C@@H]2CSSC[C@@H]3NC(=O)[C@H](C(C)C)NC(=O)[C@H](CC(C)C)NC(=O)[C@H](CC(N)=O)NC(=O)[C@@H]4CCCN4C(=O)[C@H](CCCNC(=N)N)NC(=O)[C@H](CSSC[C@H](NC(=O)[C@@H](N)CC(=O)O)C(=O)N[C@@H](CC(C)C)C(=O)NCC(=O)N[C@@H]([C@@H](C)O)C(=O)N[C@@H](CCSC)C(=O)N[C@@H](CCCNC(=N)N)C(=O)N[C@@H](CCCCN)C(=O)N2)NC(=O)[C@H](CSSC[C@@H](C(=O)N[C@@H](CCCCN)C(=O)N[C@@H](Cc2ccc(O)cc2)C(=O)N[C@H](C(=O)N[C@@H](Cc2ccccc2)C(N)=O)C(C)C)NC(=O)[C@H](Cc2c[nH]c4ccccc24)NC(=O)[C@H](CCCCN)NC(=O)[C@H](Cc2c[nH]cn2)NC(=O)[C@H]([C@@H](C)O)NC(=O)[C@H](CCCNC(=N)N)NC(=O)[C@H](CO)NC3=O)NC(=O)[C@H](CCCCN)NC(=O)[C@H](CC(=O)O)NC(=O)[C@H](CC(N)=O)NC(=O)[C@H](CC(=O)O)NC(=O)[C@@H]2CCCN2C1=O [SEQ ID NO: 270] (H-DCLGTMRKCIPDNDKCCRPNLVCSRTHKWCKYVF-NH2; disulfide 2-17, 9-23, 16-30) | 5.91 | 4.82 | 5.66
CC[C@H](C)[C@@H]1NC(=O)[C@@H]2CSSC[C@@H]3NC(=O)[C@H](C(C)C)NC(=O)[C@H](CC(C)C)NC(=O)[C@H](CC(N)=O)NC(=O)[C@@H]4CCCN4C(=O)[C@H](CCCNC(=N)N)NC(=O)[C@H](CSSC[C@H](NC(=O)[C@@H](N)CC(=O)O)C(=O)N[C@@H](CC(C)C)C(=O)NCC(=O)N[C@@H](Cc4ccc(O)cc4)C(=O)N[C@@H](CCSC)C(=O)N[C@@H](CCCNC(=N)N)C(=O)N[C@@H](CCCCN)C(=O)N2)NC(=O)[C@H](CSSC[C@@H](C(=O)N[C@@H](CCCCN)C(=O)N[C@@H](Cc2ccc(O)cc2)C(=O)N[C@H](C(=O)N[C@@H](Cc2ccccc2)C(N)=O)C(C)C)NC(=O)[C@H](Cc2c[nH]c4ccccc24)NC(=O)[C@H](CCCCN)NC(=O)[C@H](Cc2c[nH]cn2)NC(=O)[C@H]([C@@H](C)O)NC(=O)[C@H](CCCNC(=N)N)NC(=O)[C@H](CO)NC3=O)NC(=O)[C@H](CCCCN)NC(=O)[C@H](CC(=O)O)NC(=O)[C@H](CC(N)=O)NC(=O)[C@H](CC(=O)O)NC(=O)[C@@H]2CCCN2C1=O [SEQ ID NO: 271] (H-DCLGYMRKCIPDNDKCCRPNLVCSRTHKWCKYVF-NH2; disulfide 2-17, 9-23, 16-30) | 5.84 | 4.81 | 5.79
CC[C@H](C)[C@@H]1NC(=O)[C@@H]2CSSC[C@@H]3NC(=O)[C@H](C(C)C)NC(=O)[C@H](CC(C)C)NC(=O)[C@H](CC(N)=O)NC(=O)[C@@H]4CCCN4C(=O)[C@H](CCCNC(=N)N)NC(=O)[C@H](CSSC[C@H](NC(=O)[C@@H](N)CC(=O)O)C(=O)N[C@@H](CC(C)C)C(=O)NCC(=O)N(C)[C@@H](Cc4c[nH]c5ccccc45)C(=O)N[C@@H](CCSC)C(=O)N[C@@H](CCCNC(=N)N)C(=O)N[C@@H](CCCCN)C(=O)N2)NC(=O)[C@H](CSSC[C@@H](C(=O)N[C@@H](CCCCN)C(=O)N[C@@H](Cc2ccc(O)cc2)C(=O)N[C@H](C(=O)N[C@@H](Cc2ccccc2)C(N)=O)C(C)C)NC(=O)[C@H](Cc2c[nH]c4ccccc24)NC(=O)[C@H](CCCCN)NC(=O)[C@H](Cc2c[nH]cn2)NC(=O)[C@H]([C@@H](C)O)NC(=O)[C@H](CCCNC(=N)N)NC(=O)[C@H](CO)NC3=O)NC(=O)[C@H](CCCCN)NC(=O)[C@H](CC(=O)O)NC(=O)[C@H](CC(N)=O)NC(=O)[C@H](CC(=O)O)NC(=O)[C@@H]2CCCN2C1=O [SEQ ID NO: 274] | 6.72 | < 5.30 | 6.82
CC[C@H](C)[C@@H]1NC(=O)[C@@H]2CSSC[C@@H]3NC(=O)[C@H](C(C)C)NC(=O)[C@H](CC(C)C)NC(=O)[C@H](CC(N)=O)NC(=O)[C@@H]4CCCN4C(=O)[C@H](CCCNC(=N)N)NC(=O)[C@H](CSSC[C@H](NC(=O)[C@@H](N)CC(=O)O)C(=O)N[C@@H](CC(C)C)C(=O)NCC(=O)N[C@@H](c4ccccc4)C(=O)N[C@@H](CCSC)C(=O)N[C@@H](CCCNC(=N)N)C(=O)N[C@@H](CCCCN)C(=O)N2)NC(=O)[C@H](CSSC[C@@H](C(=O)N[C@@H](CCCCN)C(=O)N[C@@H](Cc2ccc(O)cc2)C(=O)N[C@H](C(=O)N[C@@H](Cc2ccccc2)C(N)=O)C(C)C)NC(=O)[C@H](Cc2c[nH]c4ccccc24)NC(=O)[C@H](CCCCN)NC(=O)[C@H](Cc2c[nH]cn2)NC(=O)[C@H]([C@@H](C)O)NC(=O)[C@H](CCCNC(=N)N)NC(=O)[C@H](CO)NC3=O)NC(=O)[C@H](CCCCN)NC(=O)[C@H](CC(=O)O)NC(=O)[C@H](CC(N)=O)NC(=O)[C@H](CC(=O)O)NC(=O)[C@@H]2CCCN2C1=O [SEQ ID NO: 275] | 7.05 | < 5.30 | 6.77
CC[C@H](C)[C@@H]1NC(=O)[C@@H]2CSSC[C@@H]3NC(=O)[C@H](C(C)C)NC(=O)[C@H](CC(C)C)NC(=O)[C@H](CC(N)=O)NC(=O)[C@@H]4CCCN4C(=O)[C@H](CCCNC(=N)N)NC(=O)[C@H](CSSC[C@H](NC(=O)[C@@H](N)CC(=O)O)C(=O)N[C@@H](CC(C)C)C(=O)NCC(=O)N[C@@H](Cc4ccc(C(=O)O)cc4)C(=O)N[C@@H](CCSC)C(=O)N[C@@H](CCCNC(=N)N)C(=O)N[C@@H](CCCCN)C(=O)N2)NC(=O)[C@H](CSSC[C@@H](C(=O)N[C@@H](CCCCN)C(=O)N[C@@H](Cc2ccc(O)cc2)C(=O)N[C@H](C(=O)N[C@@H](Cc2ccccc2)C(N)=O)C(C)C)NC(=O)[C@H](Cc2c[nH]c4ccccc24)NC(=O)[C@H](CCCCN)NC(=O)[C@H](Cc2c[nH]cn2)NC(=O)[C@H]([C@@H](C)O)NC(=O)[C@H](CCCNC(=N)N)NC(=O)[C@H](CO)NC3=O)NC(=O)[C@H](CCCCN)NC(=O)[C@H](CC(=O)O)NC(=O)[C@H](CC(N)=O)NC(=O)[C@H](CC(=O)O)NC(=O)[C@@H]2CCCN2C1=O [SEQ ID NO: 276] | 4.80 | 5.09 | 5.27
